From patent US20150176022A1, “HERBICIDE-RESISTANT SUNFLOWER PLANTS, POLYNUCLEOTIDES ENCODING HERBICIDE=RESISTANT ACETO HYDROXY ACID SYNTHASE LARGE SUBUNIT PROTEINS, AND METHODS OF USE” (priority 2013, published 2015)

Tests used:
Test in all cases: Greenhouse whole-plant imazapir dose response (Example 8)
Type in all cases: in vivo, Helianthus annuus
[1] = test system: sunflower GIM 5-7 (Manteiner Line, A205V); settings: GIM5-7, 14 DAT
Procedure: (§1) A greenhouse study was conducted to quantify and contrast the imazapir sensitivity of the mutants A122T and A205V in different genetic backgrounds at the whole plant level in sunflower. Seeds of the different sunflower lines that were used in this study were obtained under field conditions.
(§2) Seeds were sown in Petri dishes and, after germination, plantlets were transplanted to pots of 10 cm of diameter in a potting media consisting of equal parts of vermiculite, soil and sand. Plants were grown in a greenhouse under natural light conditions supplemented with 400 W sodium halide lamps to provide a 16 hrs daylength. Day/night temperatures were 25 and 20° C., respectively. At the V2 stage 10 plants of each genotype were randomly assigned to each treatment consisting of […] imazapir doses (0, 40, 80, 160, 240, 320, 400 and 480 g ai/ha), and a zero-time biomass determination. Experiment was arranged as a randomized block design with a full factorial (sunflower line×treatment) arrangement of treatments and 10 replications.
(§3) On the day of herbicide application ten plants of each genotype were cut at the cotyledonal node and dried at 60° C. for 48 hrs zero-time for dried weight determination. […] Height was determined as the distance between the cotyledonal node and the apex of each plant. For root biomass determination, each plant was taken from the pot and the potting media was washed out from the roots. Above ground biomass data from each line were converted to biomass accumulation after application by subtracting the appropriate average zero-time biomass from each sample. Dry biomass data were converted to percentages of the untreated control plants within each line to allow direct comparisons between groups.

[2] = test system: sunflower GM40 (Manteiner Line, A122T); settings: 14 DAT
Procedure: as §1, §2, §3

[3] = test system: sunflower IR79 (Restorer Line, A205V); settings: 14 DAT
Procedure: as §1, §2, §3

[4] = test system: sunflower TH10 (Restorer Line, A205V); settings: 14 DAT
Procedure: as §1, §2, §3

[5] = test system: sunflower TH9 (Hybrid, A205V); settings: 14 DAT
Procedure: as §1, §2, §3

CC(C)C1(C)N=C(c2ncccc2C(=O)O)NC1=O (centres unmarked) [imazapir, imazapyr]
biomass accumulation (dry biomass, % of untreated) ([1]; 0.5× (40 g ai/ha)): 92.9% | plant height (% of untreated) ([1]; 0.5× (40 g ai/ha)): 79.1% | root dry weight (% of untreated) ([1]; 0.5× (40 g ai/ha)): 79.2% | biomass accumulation (dry biomass, % of untreated) ([1]; 1× (80 g ai/ha)): 75.1% | plant height (% of untreated) ([1]; 1× (80 g ai/ha)): 76.7% | root dry weight (% of untreated) ([1]; 1× (80 g ai/ha)): 56.3% | biomass accumulation (dry biomass, % of untreated) ([1]; 2× (160 g ai/ha)): 55.1% | plant height (% of untreated) ([1]; 2× (160 g ai/ha)): 57.7% | root dry weight (% of untreated) ([1]; 2× (160 g ai/ha)): 40.6% | biomass accumulation (dry biomass, % of untreated) ([1]; 3× (240 g ai/ha)): 45.6% | plant height (% of untreated) ([1]; 3× (240 g ai/ha)): 55.3% | root dry weight (% of untreated) ([1]; 3× (240 g ai/ha)): 40.2% | biomass accumulation (dry biomass, % of untreated) ([1]; 4× (320 g ai/ha)): 31.8% | plant height (% of untreated) ([1]; 4× (320 g ai/ha)): 27.3% | root dry weight (% of untreated) ([1]; 4× (320 g ai/ha)): 34.0% | biomass accumulation (dry biomass, % of untreated) ([1]; 5× (400 g ai/ha)): 34.2% | plant height (% of untreated) ([1]; 5× (400 g ai/ha)): 37.2% | root dry weight (% of untreated) ([1]; 5× (400 g ai/ha)): 48.5% | biomass accumulation (dry biomass, % of untreated) ([1]; 6× (480 g ai/ha)): 36.8% | plant height (% of untreated) ([1]; 6× (480 g ai/ha)): 30.0% | root dry weight (% of untreated) ([1]; 6× (480 g ai/ha)): 43.1% | biomass accumulation (dry biomass, % of untreated) ([2]; 0.5× (40 g ai/ha)): 96.5% | plant height (% of untreated) ([2]; 0.5× (40 g ai/ha)): 99.6% | root dry weight (% of untreated) ([2]; 0.5× (40 g ai/ha)): 100% | biomass accumulation (dry biomass, % of untreated) ([2]; 1× (80 g ai/ha)): 94.1% | plant height (% of untreated) ([2]; 1× (80 g ai/ha)): 97.4% | root dry weight (% of untreated) ([2]; 1× (80 g ai/ha)): 100% | biomass accumulation (dry biomass, % of untreated) ([2]; 2× (160 g ai/ha)): 97.6% | plant height (% of untreated) ([2]; 2× (160 g ai/ha)): 95.2% | root dry weight (% of untreated) ([2]; 2× (160 g ai/ha)): 100% | biomass accumulation (dry biomass, % of untreated) ([2]; 3× (240 g ai/ha)): 95.8% | plant height (% of untreated) ([2]; 3× (240 g ai/ha)): 93.0% | root dry weight (% of untreated) ([2]; 3× (240 g ai/ha)): 92.2% | biomass accumulation (dry biomass, % of untreated) ([2]; 4× (320 g ai/ha)): 88.3% | plant height (% of untreated) ([2]; 4× (320 g ai/ha)): 93.0% | root dry weight (% of untreated) ([2]; 4× (320 g ai/ha)): 96.1% | biomass accumulation (dry biomass, % of untreated) ([2]; 5× (400 g ai/ha)): 85.6% | plant height (% of untreated) ([2]; 5× (400 g ai/ha)): 93.9% | root dry weight (% of untreated) ([2]; 5× (400 g ai/ha)): 84.2% | biomass accumulation (dry biomass, % of untreated) ([2]; 6× (480 g ai/ha)): 76.8% | plant height (% of untreated) ([2]; 6× (480 g ai/ha)): 84.3% | root dry weight (% of untreated) ([2]; 6× (480 g ai/ha)): 74.3% | biomass accumulation (dry biomass, % of untreated) ([3]; 0.5× (40 g ai/ha)): 94.4% | plant height (% of untreated) ([3]; 0.5× (40 g ai/ha)): 92.8% | root dry weight (% of untreated) ([3]; 0.5× (40 g ai/ha)): 98.6% | biomass accumulation (dry biomass, % of untreated) ([3]; 1× (80 g ai/ha)): 74.0% | plant height (% of untreated) ([3]; 1× (80 g ai/ha)): 80.9% | root dry weight (% of untreated) ([3]; 1× (80 g ai/ha)): 53.4% | biomass accumulation (dry biomass, % of untreated) ([3]; 2× (160 g ai/ha)): 67.7% | plant height (% of untreated) ([3]; 2× (160 g ai/ha)): 74.9% | root dry weight (% of untreated) ([3]; 2× (160 g ai/ha)): 42.5% | biomass accumulation (dry biomass, % of untreated) ([3]; 3× (240 g ai/ha)): 49.1% | plant height (% of untreated) ([3]; 3× (240 g ai/ha)): 55.7% | root dry weight (% of untreated) ([3]; 3× (240 g ai/ha)): 38.4% | biomass accumulation (dry biomass, % of untreated) ([3]; 4× (320 g ai/ha)): 44.5% | plant height (% of untreated) ([3]; 4× (320 g ai/ha)): 52.8% | root dry weight (% of untreated) ([3]; 4× (320 g ai/ha)): 31.5% | biomass accumulation (dry biomass, % of untreated) ([3]; 5× (400 g ai/ha)): 40.1% | plant height (% of untreated) ([3]; 5× (400 g ai/ha)): 41.7% | root dry weight (% of untreated) ([3]; 5× (400 g ai/ha)): 23.3% | biomass accumulation (dry biomass, % of untreated) ([3]; 6× (480 g ai/ha)): 35.3% | plant height (% of untreated) ([3]; 6× (480 g ai/ha)): 33.2% | root dry weight (% of untreated) ([3]; 6× (480 g ai/ha)): 21.9% | Phytotoxicity Index ([4]; 0.5× (40 g ai/ha)): 0 | biomass accumulation (dry biomass, % of untreated) ([4]; 0.5× (40 g ai/ha)): 99.2% | plant height (% of untreated) ([4]; 0.5× (40 g ai/ha)): 99.2% | root dry weight (% of untreated) ([4]; 0.5× (40 g ai/ha)): 90.3% | Phytotoxicity Index ([4]; 1× (80 g ai/ha)): 0 | biomass accumulation (dry biomass, % of untreated) ([4]; 1× (80 g ai/ha)): 85.0% | plant height (% of untreated) ([4]; 1× (80 g ai/ha)): 98.1% | root dry weight (% of untreated) ([4]; 1× (80 g ai/ha)): 69.9% | Phytotoxicity Index ([4]; 2× (160 g ai/ha)): 3.1 | biomass accumulation (dry biomass, % of untreated) ([4]; 2× (160 g ai/ha)): 58.1% | plant height (% of untreated) ([4]; 2× (160 g ai/ha)): 63.6% | root dry weight (% of untreated) ([4]; 2× (160 g ai/ha)): 41.3% | Phytotoxicity Index ([4]; 3× (240 g ai/ha)): 3.9 | biomass accumulation (dry biomass, % of untreated) ([4]; 3× (240 g ai/ha)): 48.1% | plant height (% of untreated) ([4]; 3× (240 g ai/ha)): 51.9% | root dry weight (% of untreated) ([4]; 3× (240 g ai/ha)): 42.8% | Phytotoxicity Index ([4]; 4× (320 g ai/ha)): 5.9 | biomass accumulation (dry biomass, % of untreated) ([4]; 4× (320 g ai/ha)): 28.8% | plant height (% of untreated) ([4]; 4× (320 g ai/ha)): 27.5% | root dry weight (% of untreated) ([4]; 4× (320 g ai/ha)): 22.3% | Phytotoxicity Index ([4]; 5× (400 g ai/ha)): 6.9 | biomass accumulation (dry biomass, % of untreated) ([4]; 5× (400 g ai/ha)): 27.4% | plant height (% of untreated) ([4]; 5× (400 g ai/ha)): 28.0% | root dry weight (% of untreated) ([4]; 5× (400 g ai/ha)): 22.7% | Phytotoxicity Index ([4]; 6× (480 g ai/ha)): 6.7 | biomass accumulation (dry biomass, % of untreated) ([4]; 6× (480 g ai/ha)): 24.9% | plant height (% of untreated) ([4]; 6× (480 g ai/ha)): 29.3% | root dry weight (% of untreated) ([4]; 6× (480 g ai/ha)): 16.4% | Phytotoxicity Index ([5]; 0.5× (40 g ai/ha)): 0 | biomass accumulation (dry biomass, % of untreated) ([5]; 0.5× (40 g ai/ha)): 91.7% | plant height (% of untreated) ([5]; 0.5× (40 g ai/ha)): 100.0% | root dry weight (% of untreated) ([5]; 0.5× (40 g ai/ha)): 81.5% | Phytotoxicity Index ([5]; 1× (80 g ai/ha)): 0 | biomass accumulation (dry biomass, % of untreated) ([5]; 1× (80 g ai/ha)): 81.7% | plant height (% of untreated) ([5]; 1× (80 g ai/ha)): 100.0% | root dry weight (% of untreated) ([5]; 1× (80 g ai/ha)): 84.9% | Phytotoxicity Index ([5]; 2× (160 g ai/ha)): 1.6 | biomass accumulation (dry biomass, % of untreated) ([5]; 2× (160 g ai/ha)): 54.7% | plant height (% of untreated) ([5]; 2× (160 g ai/ha)): 78.9% | root dry weight (% of untreated) ([5]; 2× (160 g ai/ha)): 58.8% | Phytotoxicity Index ([5]; 3× (240 g ai/ha)): 5.1 | biomass accumulation (dry biomass, % of untreated) ([5]; 3× (240 g ai/ha)): 35.7% | plant height (% of untreated) ([5]; 3× (240 g ai/ha)): 50.0% | root dry weight (% of untreated) ([5]; 3× (240 g ai/ha)): 34.1% | Phytotoxicity Index ([5]; 4× (320 g ai/ha)): 8.4 | biomass accumulation (dry biomass, % of untreated) ([5]; 4× (320 g ai/ha)): 25.3% | plant height (% of untreated) ([5]; 4× (320 g ai/ha)): 38.1% | root dry weight (% of untreated) ([5]; 4× (320 g ai/ha)): 27.3% | Phytotoxicity Index ([5]; 5× (400 g ai/ha)): 8.9 | biomass accumulation (dry biomass, % of untreated) ([5]; 5× (400 g ai/ha)): 19.8% | plant height (% of untreated) ([5]; 5× (400 g ai/ha)): 31.8% | root dry weight (% of untreated) ([5]; 5× (400 g ai/ha)): 29.9% | Phytotoxicity Index ([5]; 6× (480 g ai/ha)): 8.9 | biomass accumulation (dry biomass, % of untreated) ([5]; 6× (480 g ai/ha)): 19.5% | plant height (% of untreated) ([5]; 6× (480 g ai/ha)): 34.7% | root dry weight (% of untreated) ([5]; 6× (480 g ai/ha)): 22.1%
